Test results published in paper PMC11750102, “Inhibition of the anti-apoptotic protein BCL2 in EML4-ALK cell models as a second proposed therapeutic target for non-small cell lung cancer” (PLOS ONE, 2025).

Molecular target: T1, Anaplastic lymphoma kinase (ALK) (Homo sapiens, UniProt Q9UM73)
T1 construct: purified recombinant GST-ALK
Test: ELISA-based in vitro kinase assay with peptide substrate
Format: biochemical

T1 sequence (Q9UM73 19-1620): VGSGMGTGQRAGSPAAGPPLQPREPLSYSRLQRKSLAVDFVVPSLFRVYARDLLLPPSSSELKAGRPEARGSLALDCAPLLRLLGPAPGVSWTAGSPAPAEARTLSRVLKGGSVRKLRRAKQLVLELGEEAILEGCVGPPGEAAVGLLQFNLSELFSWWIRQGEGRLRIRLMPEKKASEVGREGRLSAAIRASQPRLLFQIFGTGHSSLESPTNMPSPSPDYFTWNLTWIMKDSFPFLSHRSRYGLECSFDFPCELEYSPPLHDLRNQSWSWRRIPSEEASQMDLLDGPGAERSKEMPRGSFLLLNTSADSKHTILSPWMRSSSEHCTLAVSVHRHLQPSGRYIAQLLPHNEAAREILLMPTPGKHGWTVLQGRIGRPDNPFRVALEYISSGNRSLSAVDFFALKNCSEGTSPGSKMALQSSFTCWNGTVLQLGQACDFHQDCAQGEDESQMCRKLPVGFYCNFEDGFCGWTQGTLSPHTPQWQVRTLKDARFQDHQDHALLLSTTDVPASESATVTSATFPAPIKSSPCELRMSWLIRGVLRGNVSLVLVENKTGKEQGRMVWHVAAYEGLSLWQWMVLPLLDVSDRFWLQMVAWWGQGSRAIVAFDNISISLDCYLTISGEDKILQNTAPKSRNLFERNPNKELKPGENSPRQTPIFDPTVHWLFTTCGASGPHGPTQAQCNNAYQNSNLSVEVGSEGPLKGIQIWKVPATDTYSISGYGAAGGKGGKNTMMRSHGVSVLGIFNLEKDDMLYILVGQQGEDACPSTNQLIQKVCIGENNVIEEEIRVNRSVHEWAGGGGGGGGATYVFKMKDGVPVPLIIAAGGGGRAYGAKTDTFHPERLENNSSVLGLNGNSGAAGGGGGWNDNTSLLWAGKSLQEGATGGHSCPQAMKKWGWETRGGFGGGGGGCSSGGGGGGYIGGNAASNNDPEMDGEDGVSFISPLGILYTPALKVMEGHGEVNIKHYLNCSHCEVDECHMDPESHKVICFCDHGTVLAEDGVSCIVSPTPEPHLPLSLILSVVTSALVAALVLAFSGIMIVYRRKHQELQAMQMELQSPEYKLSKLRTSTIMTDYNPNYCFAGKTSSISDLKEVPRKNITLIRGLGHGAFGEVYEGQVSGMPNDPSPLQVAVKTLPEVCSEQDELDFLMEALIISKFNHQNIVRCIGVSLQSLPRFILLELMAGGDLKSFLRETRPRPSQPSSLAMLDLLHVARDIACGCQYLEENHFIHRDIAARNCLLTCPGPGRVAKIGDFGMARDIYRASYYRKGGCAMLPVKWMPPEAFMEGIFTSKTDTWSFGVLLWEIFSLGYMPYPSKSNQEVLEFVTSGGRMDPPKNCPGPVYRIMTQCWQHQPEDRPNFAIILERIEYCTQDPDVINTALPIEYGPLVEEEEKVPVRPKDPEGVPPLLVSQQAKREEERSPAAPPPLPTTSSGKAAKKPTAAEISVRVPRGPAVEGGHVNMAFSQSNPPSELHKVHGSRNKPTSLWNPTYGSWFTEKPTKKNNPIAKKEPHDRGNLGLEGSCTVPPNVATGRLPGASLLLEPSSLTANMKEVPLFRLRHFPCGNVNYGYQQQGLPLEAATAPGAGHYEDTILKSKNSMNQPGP

For `CC1(C)CCC(CN2CCN(c3ccc(C(=O)NS(=O)(=O)c4ccc(NCC5CCOCC5)c([N+](=O)[O-])c4)c(Oc4cnc5[nH]ccc5c4)c3)CC2)=C(c2ccc(Cl)cc2)C1` [ABT-199], the IC50 was 5.5 µM.
